Test results taken from US20240269139A1, “COMPOUNDS FOR TARGETED PROTEIN DEGRADATION OF KINASES” (DANA-FARBER CANCER INSTITUTE, INC., priority 2020, published 2024).
Like-named read-outs stand apart in the source and are kept apart here.

Experiments:
Format in all cases: cell-based
[1] = target: protein kinases (human kinome) (Homo sapiens, UniProt Q16760); details: protein DGKD (Q16760-1); experiment wp045; down
[2] = target: protein kinases (human kinome) (Homo sapiens, UniProt Q14680); details: experiment wp131
[3] = target: protein kinases (human kinome) (Homo sapiens, UniProt Q8NFU5); details: IPMK (Q8NFU5)
[4] = target: T1, protein kinases (human kinome) (Homo sapiens, UniProt Q9UQ88); details: experiment wp105
T1 sequence (Q9UQ88 1-783): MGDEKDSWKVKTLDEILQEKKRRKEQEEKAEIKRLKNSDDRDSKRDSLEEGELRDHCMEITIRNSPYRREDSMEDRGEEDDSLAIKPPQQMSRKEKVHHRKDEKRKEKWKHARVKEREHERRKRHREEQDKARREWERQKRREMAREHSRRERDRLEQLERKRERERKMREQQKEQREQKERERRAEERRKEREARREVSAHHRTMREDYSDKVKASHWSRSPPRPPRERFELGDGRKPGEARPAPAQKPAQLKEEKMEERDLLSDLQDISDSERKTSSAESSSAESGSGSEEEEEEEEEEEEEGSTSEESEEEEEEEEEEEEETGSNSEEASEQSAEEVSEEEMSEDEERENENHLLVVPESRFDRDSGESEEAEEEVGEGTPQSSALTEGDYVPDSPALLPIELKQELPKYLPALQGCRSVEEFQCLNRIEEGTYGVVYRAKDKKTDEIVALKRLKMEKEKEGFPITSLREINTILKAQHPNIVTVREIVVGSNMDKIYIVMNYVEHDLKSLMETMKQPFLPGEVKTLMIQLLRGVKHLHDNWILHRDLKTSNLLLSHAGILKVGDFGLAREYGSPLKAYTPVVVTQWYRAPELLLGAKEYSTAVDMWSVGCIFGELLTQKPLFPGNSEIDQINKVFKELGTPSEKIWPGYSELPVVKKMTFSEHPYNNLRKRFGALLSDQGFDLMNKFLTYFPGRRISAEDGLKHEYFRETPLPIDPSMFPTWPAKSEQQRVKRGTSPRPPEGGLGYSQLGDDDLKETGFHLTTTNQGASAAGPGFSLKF

[5] = target: protein kinases (human kinome) (Homo sapiens, UniProt Q8IW41); details: experiment wp080
[6] = target: protein kinases (human kinome) (Homo sapiens, UniProt Q9P2K8); details: experiment wp080
[7] = target: protein kinases (human kinome) (Homo sapiens, UniProt P54760); details: experiment wp172
[8] = target: T2, protein kinases (human kinome) (Homo sapiens, UniProt Q96S38); details: for logFC RPS6KC1 (Q96S38): direction of change down; for logFC: RPS6KC1 (Q96S38)
T2 sequence (Q96S38 1-1066): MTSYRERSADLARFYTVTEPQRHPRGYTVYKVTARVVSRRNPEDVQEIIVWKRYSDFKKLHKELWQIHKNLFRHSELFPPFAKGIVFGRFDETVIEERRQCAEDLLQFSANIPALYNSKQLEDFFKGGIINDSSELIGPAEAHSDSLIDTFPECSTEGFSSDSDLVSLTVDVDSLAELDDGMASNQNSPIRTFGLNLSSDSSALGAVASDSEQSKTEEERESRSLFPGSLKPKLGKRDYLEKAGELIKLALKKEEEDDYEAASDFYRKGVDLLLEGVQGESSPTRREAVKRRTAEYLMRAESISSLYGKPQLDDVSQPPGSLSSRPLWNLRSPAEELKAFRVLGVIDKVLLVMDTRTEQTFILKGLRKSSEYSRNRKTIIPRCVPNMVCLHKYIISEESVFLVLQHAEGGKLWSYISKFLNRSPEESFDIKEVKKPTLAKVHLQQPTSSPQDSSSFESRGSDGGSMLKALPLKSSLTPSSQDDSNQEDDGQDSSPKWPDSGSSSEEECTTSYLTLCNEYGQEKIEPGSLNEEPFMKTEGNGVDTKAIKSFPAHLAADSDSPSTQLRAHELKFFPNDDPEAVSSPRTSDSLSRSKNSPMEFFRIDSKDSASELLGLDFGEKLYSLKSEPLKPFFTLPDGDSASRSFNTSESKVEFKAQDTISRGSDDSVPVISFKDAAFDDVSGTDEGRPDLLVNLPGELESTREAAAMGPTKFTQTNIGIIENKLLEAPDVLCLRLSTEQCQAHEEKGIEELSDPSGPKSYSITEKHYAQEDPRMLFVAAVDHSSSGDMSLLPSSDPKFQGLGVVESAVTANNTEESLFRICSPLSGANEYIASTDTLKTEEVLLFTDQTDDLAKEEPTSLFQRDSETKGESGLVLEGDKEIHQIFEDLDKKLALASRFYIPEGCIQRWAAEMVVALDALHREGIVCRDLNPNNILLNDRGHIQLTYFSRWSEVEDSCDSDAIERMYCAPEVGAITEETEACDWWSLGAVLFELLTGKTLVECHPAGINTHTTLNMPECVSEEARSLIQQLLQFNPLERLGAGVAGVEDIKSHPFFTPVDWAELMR

protein kinases (human kinome) (Homo sapiens, UniProt Q14680), sequence (Q14680 whole entry): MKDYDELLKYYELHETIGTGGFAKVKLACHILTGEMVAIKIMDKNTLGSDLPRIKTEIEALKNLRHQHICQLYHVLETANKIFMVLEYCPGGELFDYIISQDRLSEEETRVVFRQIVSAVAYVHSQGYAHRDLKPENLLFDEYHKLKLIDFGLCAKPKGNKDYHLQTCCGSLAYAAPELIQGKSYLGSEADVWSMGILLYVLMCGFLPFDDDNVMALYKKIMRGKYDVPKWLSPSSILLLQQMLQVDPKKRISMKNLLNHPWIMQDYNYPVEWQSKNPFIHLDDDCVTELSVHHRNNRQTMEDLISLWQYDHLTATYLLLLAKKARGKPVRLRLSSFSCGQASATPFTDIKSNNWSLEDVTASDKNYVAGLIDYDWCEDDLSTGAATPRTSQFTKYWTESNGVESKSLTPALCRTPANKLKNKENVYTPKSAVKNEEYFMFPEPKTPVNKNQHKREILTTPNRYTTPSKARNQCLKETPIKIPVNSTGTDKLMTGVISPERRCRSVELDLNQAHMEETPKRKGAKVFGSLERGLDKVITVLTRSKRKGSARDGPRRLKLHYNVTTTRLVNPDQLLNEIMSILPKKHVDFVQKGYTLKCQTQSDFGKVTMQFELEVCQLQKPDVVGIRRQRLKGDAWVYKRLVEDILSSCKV
protein kinases (human kinome) (Homo sapiens, UniProt Q8IW41), sequence (Q8IW41 whole entry): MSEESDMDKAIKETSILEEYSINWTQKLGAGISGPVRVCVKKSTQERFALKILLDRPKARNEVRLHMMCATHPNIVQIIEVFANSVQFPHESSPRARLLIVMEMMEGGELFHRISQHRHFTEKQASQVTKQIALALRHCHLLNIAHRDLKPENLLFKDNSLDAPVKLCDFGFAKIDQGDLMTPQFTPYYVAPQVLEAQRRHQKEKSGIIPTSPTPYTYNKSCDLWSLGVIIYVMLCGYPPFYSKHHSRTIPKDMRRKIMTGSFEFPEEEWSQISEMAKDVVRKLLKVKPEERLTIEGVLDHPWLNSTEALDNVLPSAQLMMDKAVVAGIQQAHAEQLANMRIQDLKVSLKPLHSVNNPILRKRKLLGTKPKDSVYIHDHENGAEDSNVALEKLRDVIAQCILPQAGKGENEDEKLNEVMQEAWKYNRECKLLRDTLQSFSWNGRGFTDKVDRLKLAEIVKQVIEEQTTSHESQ
protein kinases (human kinome) (Homo sapiens, UniProt P54760), sequence (P54760 16-987): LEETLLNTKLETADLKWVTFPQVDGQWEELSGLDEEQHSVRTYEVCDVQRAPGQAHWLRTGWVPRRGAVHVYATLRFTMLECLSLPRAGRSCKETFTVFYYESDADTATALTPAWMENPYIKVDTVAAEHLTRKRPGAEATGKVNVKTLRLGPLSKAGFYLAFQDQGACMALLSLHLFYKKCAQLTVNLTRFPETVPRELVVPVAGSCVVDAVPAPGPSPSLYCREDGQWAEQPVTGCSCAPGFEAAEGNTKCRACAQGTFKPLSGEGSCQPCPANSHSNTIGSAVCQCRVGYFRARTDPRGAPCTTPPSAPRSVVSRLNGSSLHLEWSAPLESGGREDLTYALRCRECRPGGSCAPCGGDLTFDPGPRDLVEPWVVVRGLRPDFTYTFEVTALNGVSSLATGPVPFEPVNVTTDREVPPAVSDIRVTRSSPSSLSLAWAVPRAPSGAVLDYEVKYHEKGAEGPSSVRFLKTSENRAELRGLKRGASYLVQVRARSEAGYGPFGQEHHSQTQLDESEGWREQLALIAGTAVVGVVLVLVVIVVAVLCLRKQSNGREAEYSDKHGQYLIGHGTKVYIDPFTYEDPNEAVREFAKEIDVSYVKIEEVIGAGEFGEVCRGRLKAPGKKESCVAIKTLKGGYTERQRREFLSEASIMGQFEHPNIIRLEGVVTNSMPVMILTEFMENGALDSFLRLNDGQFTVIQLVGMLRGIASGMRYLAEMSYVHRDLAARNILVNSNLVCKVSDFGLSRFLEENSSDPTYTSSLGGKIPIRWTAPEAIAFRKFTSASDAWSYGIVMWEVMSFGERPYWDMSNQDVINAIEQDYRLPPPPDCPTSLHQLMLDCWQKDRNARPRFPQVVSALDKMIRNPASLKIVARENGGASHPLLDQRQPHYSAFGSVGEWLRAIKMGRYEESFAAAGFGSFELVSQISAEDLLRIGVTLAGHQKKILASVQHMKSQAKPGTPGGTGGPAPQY
protein kinases (human kinome) (Homo sapiens, UniProt Q9P2K8), sequence (Q9P2K8 whole entry): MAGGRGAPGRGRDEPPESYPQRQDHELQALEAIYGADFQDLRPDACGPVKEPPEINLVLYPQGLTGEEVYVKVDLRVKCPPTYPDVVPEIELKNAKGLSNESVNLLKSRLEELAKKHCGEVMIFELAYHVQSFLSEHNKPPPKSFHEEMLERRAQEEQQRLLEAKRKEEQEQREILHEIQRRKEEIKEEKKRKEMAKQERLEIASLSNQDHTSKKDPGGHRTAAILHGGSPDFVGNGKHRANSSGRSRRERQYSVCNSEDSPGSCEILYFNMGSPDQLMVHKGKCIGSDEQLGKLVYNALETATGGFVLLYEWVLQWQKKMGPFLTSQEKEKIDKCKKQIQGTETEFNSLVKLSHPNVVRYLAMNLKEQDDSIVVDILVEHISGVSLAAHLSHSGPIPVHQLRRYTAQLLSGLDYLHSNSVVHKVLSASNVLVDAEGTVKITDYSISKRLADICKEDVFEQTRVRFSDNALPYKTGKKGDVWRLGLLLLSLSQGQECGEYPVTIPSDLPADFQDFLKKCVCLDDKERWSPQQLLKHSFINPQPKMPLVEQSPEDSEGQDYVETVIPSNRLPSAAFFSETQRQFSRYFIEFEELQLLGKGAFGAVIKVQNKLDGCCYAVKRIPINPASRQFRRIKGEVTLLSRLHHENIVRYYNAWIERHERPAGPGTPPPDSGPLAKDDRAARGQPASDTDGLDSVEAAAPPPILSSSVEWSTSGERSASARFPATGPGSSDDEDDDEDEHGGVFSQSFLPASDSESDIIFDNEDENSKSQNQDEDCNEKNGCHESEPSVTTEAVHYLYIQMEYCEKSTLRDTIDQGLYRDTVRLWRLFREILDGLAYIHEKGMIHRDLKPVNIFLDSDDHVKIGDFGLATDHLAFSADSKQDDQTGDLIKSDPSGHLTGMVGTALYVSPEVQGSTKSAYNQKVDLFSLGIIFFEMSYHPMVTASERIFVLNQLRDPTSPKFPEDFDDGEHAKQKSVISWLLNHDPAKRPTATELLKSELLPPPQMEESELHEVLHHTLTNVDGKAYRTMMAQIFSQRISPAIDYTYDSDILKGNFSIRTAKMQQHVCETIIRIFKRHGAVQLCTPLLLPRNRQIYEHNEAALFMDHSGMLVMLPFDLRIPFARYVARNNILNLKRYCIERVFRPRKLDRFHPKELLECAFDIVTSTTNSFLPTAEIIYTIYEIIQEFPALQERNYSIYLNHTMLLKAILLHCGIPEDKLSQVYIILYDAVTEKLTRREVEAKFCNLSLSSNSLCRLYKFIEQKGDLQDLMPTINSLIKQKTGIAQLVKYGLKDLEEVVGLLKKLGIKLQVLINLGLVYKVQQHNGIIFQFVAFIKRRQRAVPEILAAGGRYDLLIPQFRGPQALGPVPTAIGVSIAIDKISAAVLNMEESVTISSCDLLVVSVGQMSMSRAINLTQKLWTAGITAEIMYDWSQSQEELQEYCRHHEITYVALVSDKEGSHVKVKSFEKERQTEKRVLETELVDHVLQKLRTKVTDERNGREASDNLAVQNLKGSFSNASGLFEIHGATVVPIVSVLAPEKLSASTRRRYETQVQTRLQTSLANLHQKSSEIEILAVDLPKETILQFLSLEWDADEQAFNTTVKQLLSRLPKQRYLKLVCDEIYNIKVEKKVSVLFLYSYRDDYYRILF
protein kinases (human kinome) (Homo sapiens, UniProt Q8NFU5), sequence (Q8NFU5 whole entry): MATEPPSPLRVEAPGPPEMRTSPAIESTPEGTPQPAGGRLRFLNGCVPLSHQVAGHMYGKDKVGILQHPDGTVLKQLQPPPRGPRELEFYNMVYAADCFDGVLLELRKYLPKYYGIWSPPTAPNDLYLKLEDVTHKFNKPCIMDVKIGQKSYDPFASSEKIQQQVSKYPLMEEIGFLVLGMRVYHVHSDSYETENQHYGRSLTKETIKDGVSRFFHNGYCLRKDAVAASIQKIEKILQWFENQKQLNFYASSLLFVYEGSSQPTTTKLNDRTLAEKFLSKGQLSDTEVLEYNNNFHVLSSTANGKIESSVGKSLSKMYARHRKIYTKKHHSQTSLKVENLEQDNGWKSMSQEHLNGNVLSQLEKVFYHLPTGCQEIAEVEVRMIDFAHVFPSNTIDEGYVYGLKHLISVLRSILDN

Cc1ccc(NC(=O)c2cccc(C(F)(F)F)c2)cc1N1Cc2cnc(Nc3ccc(N4CCN(CCCCCCOc5cccc6c5C(=O)N(C5CCC(=O)NC5=O)C6=O)CC4)nc3)nc2N(C)C1=O (centres unmarked) [DB0663] was tested, and the “logFC DGKD” value [1] was −0.5955.

Cc1ncsc1-c1ccc([C@H](C)NC(=O)[C@@H]2C[C@@H](O)CN2C(=O)[C@@H](NC(=O)CCOCCOCCN2CCN(c3ccc(Nc4ncc(Cl)c(Nc5ccccc5S(=O)(=O)C(C)C)n4)cc3)CC2)C(C)(C)C)cc1 [FMF.06.098.1] was tested, and the “logFC MELK (Q14680)” value ([2]; direction of change down) was −0.38 and the “logFC MELK” value ([2]; protein MELK (Q14680), down) was −0.38.

Work on Nc1ncc(-c2ccc(S(=O)(=O)N(CCCNC(=O)CCOCCOCCOCCOCCOCCNc3cccc4c3C(=O)N(C3CCC(=O)NC3=O)C4=O)C3CC3)cc2)cc1-c1ccc2c(c1)CCNC2=O (centres unmarked) [WH.10417.099] yielded a logFC ([3]; experiment wp056) of −0.5845 and a logFC ([3]; experiment wp107) of −0.4154.

With Cc1ccc(NC(=O)c2cccc(C(F)(F)F)c2)cc1N1Cc2cnc(Nc3ccc(N4CCN(Cc5cn(CCCCCOc6cccc7c6C(=O)N(C6CCC(=O)NC6=O)C7=O)nn5)CC4)nc3)nc2N(C)C1=O (centres unmarked) [DB0646, N-(3-(7-((6-(4-((1-(5-((2-(2,6-Dioxopiperidin-3-yl)-1,3-dioxoisoindolin-4-yl)oxy)pentyl)-1H-1,2,3-triazol-4-yl)methyl)piperazin-1-v)pyridin-3-yl)amino)-1-methyl-2-oxo-1,4-dihydropyrimido[4,5-d]pyrimidin-3(2H)-yl)-4-methylphenyl)-3-(trifluoromethyl)benzamide] the logFC ([4]; CDK11A (Q9UQ88-1)) was −0.868 and the “logFC of CDK11A (Q9UQ88-1)” value [4] was −0.868.

With Cc1ncsc1-c1ccc([C@H](C)NC(=O)[C@@H]2C[C@@H](O)CN2C(=O)[C@@H](NC(=O)CCCCCN2CCN(c3ccc(Nc4ncc5scc(-c6cccc(NS(C)(=O)=O)c6)c5n4)cc3)CC2)C(C)(C)C)cc1 [RSS0680, (2S,4R)-1-((S)-3,3-Dimethyl-2-(6-(4-(4-((7-(3-(methylsulfonamido)phenyl)thieno[3,2-d]pyrimidin-2-yl)amino)phenyl)piperazin-1-yl)hexanamido)butanoyl)-4-hydroxy-N—((S)-1-(4-(4-methylthiazol-5yl)phenyl)ethyl)pyrrolidine-2-carboxamide] the “logFC MAPKAPK5 (Q8IW41)” value ([5]; direction of change down) was −0.3355, the “logFC MAPKAPK5” value ([5]; protein MAPKAPK5 (Q8IW41), down) was −0.3355 and the “logFC EIF2AK4 (Q9P2K8-1)” value ([6]; direction of change down) was −0.3311. The “logFC EIF2AK4” value ([6]; protein EIF2AK4 (Q9P2K8-1), down) was −0.3311.

With CC(C)S(=O)(=O)c1ccccc1Nc1nc(Nc2ccc(N3CCN(CCOCCNC(=O)CNc4cccc5c4C(=O)N(C4CCC(=O)NC4=O)C5=O)CC3)cc2)ncc1Cl (centres unmarked) [SK.3.91] the “logFC EPHB4 (P54760)” value ([7]; direction of change down) was −0.5059, the “logFC EPHB4” value ([7]; protein EPHB4 (P54760), down) was −0.5059 and the “logFC RPS6KC1 (Q96S38)” value ([8]; Experiment wp105) was −0.3327. For the same molecule, the logFC ([8]; experiment wp105) was −0.3327, the logFC ([8]; experiment wp107) was −0.3623 and the “logFC RPS6KC1 (Q96S38)” value ([8]; experiment wp107) was −0.3623.
